Assay results as given in patent US5773449A, “Thioquinolone compounds which have useful pharmaceutical activity” (Zenyaku Kogyo Kabushiki Kaisha, priority 1994, dated 1998).
≈ marks a conversion by molar mass, not a printed value. Each block holds one compound with its values, some of them ahead of it.

Key:
peptic ulcer = conditions: H2-blocker / proton-pump inhibitor; cited from earlier work
[1] = system: Helicobacter pylori standard strain ATCC 43526 (NCTC 11916); experiment: Antibacterial test 1: agar plate dilution method (anaerobic MIC method) against Hp; assay type: cell-based; conditions: 72 h; Helicobacter pylori ATCC 43526 (NCTC 11916); brucella agar + 7% horse blood, microaerobic, 37° C., 3 days
Procedure: Antibacterial test against Hp was performed in substantial accordance with agar plate dilution method (anaerobic MIC method) based on Standard method of The Japan Society of Chemotherapy to determine minimum inhibitory concentration (MIC) of the respective test compounds. The respective test compounds were sequentially dissolved in dimethyl sulfoxide (DMSO) and serially diluted twofold. […] Strain used for inoculation was Helicobacter pylori standard strain ATCC 43526 (NCTC 11916). For pre-culturing of bacteria to be inoculated, the above-mentioned strain freezingly conserved at -135° C. was thawed in a warm bath (40° C.), applied on a brucella agar medium containing 7% horse blood free from fibrin, and microaerobically cultured in a jar for anaerobic bacteria at 37° C. for 3 days. The solution of bacteria to be inoculated was prepared by collecting colonies grown on the culture medium and suspending the same in the brucella broth.

B.subtilis PCI 219 = experiment: Antibacterial Test 2: agar plate dilution method (aerobic MIC method), B.subtilis; assay type: cell-based; conditions: Bacillus subtilis, PCI219, sensitive-disk agar medium-N
Procedure: (§1) Then, tested were antibacterial activities of the typical compounds of the present invention against gram-positive and-negative bacteria other than Hp. MICs of the typical compounds of the present invention were determined in substantial accordance with agar plate dilution method (aerobic MIC method) based on Standard method of The Japan Society of Chemotherapy.
(§2) The respective test compound were dissolved in dimethyl sulfoxide (DMSO) and serially diluted twofold. These diluted solutions of the compounds were respectively added to sensitive-disk agar medium-N (manufactured by NISSUI SEIYAKU) to prepare agar plates for determination with concentration of 0.05-100 μg/ml.
(§3) The below-mentioned strains freezingly conserved at -135° C. were thawed in a warm bath (40° C.), cultured in a sensitivity-determining bouillon at 37° C. for 18-20 hours, and then diluted with the above-mentioned medium to prepare about 1.0×10^6CFU/ml of bacterial solution.
(§4) Inoculation was made by 5 μl by multi-inoculator (manufactured by SAKUMA SEISAKUSHO). Culturing was made under the same conditions as those of the pre-culturing and the MIC (unit: μg/ml) was determined by observing whether the bacteria grew or not.

P.aeruginosa IFO 3445 = experiment: Antibacterial Test 2: agar plate dilution method (aerobic MIC method), P.aeruginosa; assay type: cell-based; conditions: Pseudomonas aeruginosa, IFO3445, sensitive-disk agar medium-N
Procedure: as §1, §2, §3, §4

K.pneumoniae PCI 602 = experiment: Antibacterial Test 2: agar plate dilution method (aerobic MIC method), K.pneumoniae; assay type: cell-based; conditions: Klebsiella pneumoniae, PCI602, sensitive-disk agar medium-N
Procedure: as §1, §2, §3, §4

S.aureus FDA 209P = experiment: Antibacterial Test 2: agar plate dilution method (aerobic MIC method), S.aureus; assay type: cell-based; conditions: Staphylococcus aureus, FDA209P, sensitive-disk agar medium-N
Procedure: as §1, §2, §3, §4

M.luteus ATCC 9341 = experiment: Antibacterial Test 2: agar plate dilution method (aerobic MIC method), M.luteus; assay type: cell-based; conditions: Micrococcus luteus, ATCC9341, sensitive-disk agar medium-N
Procedure: as §1, §2, §3, §4

E.coli NIHJ JC-2 = experiment: Antibacterial Test 2: agar plate dilution method (aerobic MIC method), E.coli; assay type: cell-based; conditions: Escherichia coli, NIHJJC2, sensitive-disk agar medium-N
Procedure: as §1, §2, §3, §4

E.faecalis RIMD 3336001 = experiment: Antibacterial Test 2: agar plate dilution method (aerobic MIC method), E.faecalis; assay type: cell-based; conditions: Enterococcus faecalis, RIMD3336001, sensitive-disk agar medium-N
Procedure: as §1, §2, §3, §4

SMILES: CN/C(=N/CCSCc1nc[nH]c1C)NC#N [cimetidine]
cure rate (peptic ulcer): 80-90%

SMILES: COc1ccc2[nH]c([S+]([O-])Cc3ncc(C)c(OC)c3C)nc2c1 (stereo not shown) [omeprazole]
cure rate (peptic ulcer): 80-90%

SMILES: CCCCCCCCCCCCc1ccc2c(=S)cc[nH]c2c1 [compound 30, 7-Dodecylquinoline-4(1H)-thione]
MIC [1]: 1.56 µg/mL
MIC (B.subtilis PCI 219): > 100 µg/mL
MIC (P.aeruginosa IFO 3445): > 100 µg/mL
MIC (K.pneumoniae PCI 602): > 100 µg/mL
MIC (S.aureus FDA 209P): > 100 µg/mL
MIC (M.luteus ATCC 9341): 100 µg/mL (≈ 303 µM)
MIC (E.coli NIHJ JC-2): > 100 µg/mL
MIC (E.faecalis RIMD 3336001): > 100 µg/mL

SMILES: Cc1ccc2c(=S)cc[nH]c2c1C [compound 55, 7,8-Dimethylquinoline-4(1H)-thione]
MIC [1]: 0.39 µg/mL
MIC (B.subtilis PCI 219): > 100 µg/mL
MIC (P.aeruginosa IFO 3445): > 100 µg/mL
MIC (K.pneumoniae PCI 602): > 100 µg/mL
MIC (S.aureus FDA 209P): > 100 µg/mL
MIC (M.luteus ATCC 9341): > 100 µg/mL
MIC (E.coli NIHJ JC-2): > 100 µg/mL
MIC (E.faecalis RIMD 3336001): > 100 µg/mL

SMILES: COc1ccc2c(=S)cc[nH]c2c1 [compound 1, 7-Methoxyquinoline-4(1H)-thione]
MIC [1]: 0.39 µg/mL
MIC (B.subtilis PCI 219): > 100 µg/mL
MIC (P.aeruginosa IFO 3445): > 100 µg/mL
MIC (K.pneumoniae PCI 602): > 100 µg/mL
MIC (S.aureus FDA 209P): 50 µg/mL (≈ 261 µM)
MIC (M.luteus ATCC 9341): > 100 µg/mL
MIC (E.coli NIHJ JC-2): > 100 µg/mL
MIC (E.faecalis RIMD 3336001): > 100 µg/mL

SMILES: CC(C)Oc1ccc2c(=S)cc[nH]c2c1 [compound 23, 7-Isopropyloxyquinoline-4(1H)-thione]
MIC [1]: 0.78 µg/mL
MIC (B.subtilis PCI 219): > 100 µg/mL
MIC (P.aeruginosa IFO 3445): > 100 µg/mL
MIC (K.pneumoniae PCI 602): > 100 µg/mL
MIC (S.aureus FDA 209P): > 100 µg/mL
MIC (M.luteus ATCC 9341): > 100 µg/mL
MIC (E.coli NIHJ JC-2): > 100 µg/mL
MIC (E.faecalis RIMD 3336001): > 100 µg/mL

SMILES: CSc1ccc2c(=S)cc[nH]c2c1 [compound 17, 7-Methylthioquinoline-4(1H)-thione]
MIC [1]: 0.39 µg/mL
MIC (B.subtilis PCI 219): > 100 µg/mL
MIC (P.aeruginosa IFO 3445): > 100 µg/mL
MIC (K.pneumoniae PCI 602): > 100 µg/mL
MIC (S.aureus FDA 209P): > 100 µg/mL
MIC (M.luteus ATCC 9341): > 100 µg/mL
MIC (E.coli NIHJ JC-2): > 100 µg/mL
MIC (E.faecalis RIMD 3336001): > 100 µg/mL

SMILES: S=c1cc[nH]c2cc(N3CCOCC3)ccc12 [compound 36, 7-Morpholinoquinoline-4(1H)-thione]
MIC [1]: 0.39 µg/mL
MIC (B.subtilis PCI 219): 100 µg/mL (≈ 406 µM)
MIC (P.aeruginosa IFO 3445): > 100 µg/mL
MIC (K.pneumoniae PCI 602): > 100 µg/mL
MIC (S.aureus FDA 209P): 100 µg/mL (≈ 406 µM)
MIC (M.luteus ATCC 9341): 100 µg/mL (≈ 406 µM)
MIC (E.coli NIHJ JC-2): > 100 µg/mL
MIC (E.faecalis RIMD 3336001): > 100 µg/mL

SMILES: CC(C)Sc1ccc2c(=S)cc[nH]c2c1 [compound 49, 7-Isopropylthioquinoline-4(1H)-thione]
MIC [1]: 0.39 µg/mL
MIC (B.subtilis PCI 219): > 100 µg/mL
MIC (P.aeruginosa IFO 3445): > 100 µg/mL
MIC (K.pneumoniae PCI 602): > 100 µg/mL
MIC (S.aureus FDA 209P): > 100 µg/mL
MIC (M.luteus ATCC 9341): > 100 µg/mL
MIC (E.coli NIHJ JC-2): > 100 µg/mL
MIC (E.faecalis RIMD 3336001): > 100 µg/mL

Next, values leading:

MIC [1]: 0.39 µg/mL
MIC (B.subtilis PCI 219): > 100 µg/mL
MIC (P.aeruginosa IFO 3445): > 100 µg/mL
MIC (K.pneumoniae PCI 602): > 100 µg/mL
MIC (S.aureus FDA 209P): > 100 µg/mL
MIC (M.luteus ATCC 9341): > 100 µg/mL
MIC (E.coli NIHJ JC-2): > 100 µg/mL
MIC (E.faecalis RIMD 3336001): > 100 µg/mL
SMILES: S=c1cc[nH]c2cc(CCc3ccccc3)ccc12 [compound 31, 7-Phenethylquinoline-4(1H)-thione]

MIC [1]: 0.78 µg/mL
MIC (B.subtilis PCI 219): > 100 µg/mL
MIC (P.aeruginosa IFO 3445): > 100 µg/mL
MIC (K.pneumoniae PCI 602): > 100 µg/mL
MIC (S.aureus FDA 209P): > 100 µg/mL
MIC (M.luteus ATCC 9341): > 100 µg/mL
MIC (E.coli NIHJ JC-2): > 100 µg/mL
MIC (E.faecalis RIMD 3336001): > 100 µg/mL
SMILES: S=c1cc[nH]c2cc(/C=C/c3ccccc3)ccc12 [compound 32, trans-7-Styrylquinoline-4(1H)-thione]

MIC [1]: 1.56 µg/mL
MIC (B.subtilis PCI 219): > 100 µg/mL
MIC (P.aeruginosa IFO 3445): > 100 µg/mL
MIC (K.pneumoniae PCI 602): > 100 µg/mL
MIC (S.aureus FDA 209P): 100 µg/mL (≈ 456 µM)
MIC (M.luteus ATCC 9341): > 100 µg/mL
MIC (E.coli NIHJ JC-2): > 100 µg/mL
MIC (E.faecalis RIMD 3336001): > 100 µg/mL
SMILES: CCCOc1ccc2c(=S)cc[nH]c2c1 [compound 26, 7-n-Propoxyquinoline-4(1H)-thione]

MIC [1]: 1.56 µg/mL
MIC (B.subtilis PCI 219): 100 µg/mL (≈ 487 µM)
MIC (P.aeruginosa IFO 3445): > 100 µg/mL
MIC (K.pneumoniae PCI 602): > 100 µg/mL
MIC (S.aureus FDA 209P): 50 µg/mL (≈ 244 µM)
MIC (M.luteus ATCC 9341): 100 µg/mL (≈ 487 µM)
MIC (E.coli NIHJ JC-2): > 100 µg/mL
MIC (E.faecalis RIMD 3336001): 50 µg/mL (≈ 244 µM)
SMILES: COCc1ccc2c(=S)cc[nH]c2c1 [compound 16, 7-Methoxymethylquinoline-4(1H)-thione]

MIC [1]: 0.2 µg/mL
MIC (B.subtilis PCI 219): > 100 µg/mL
MIC (P.aeruginosa IFO 3445): > 100 µg/mL
MIC (K.pneumoniae PCI 602): > 100 µg/mL
MIC (S.aureus FDA 209P): > 100 µg/mL
MIC (M.luteus ATCC 9341): 50 µg/mL (≈ 199 µM)
MIC (E.coli NIHJ JC-2): > 100 µg/mL
MIC (E.faecalis RIMD 3336001): > 100 µg/mL
SMILES: S=c1cc[nH]c2cc(Cc3ccccc3)ccc12 [compound 47, 7-Benzylquinoline-4(1H)-thione]

MIC [1]: 1.56 µg/mL
MIC (B.subtilis PCI 219): > 100 µg/mL
MIC (P.aeruginosa IFO 3445): > 100 µg/mL
MIC (K.pneumoniae PCI 602): > 100 µg/mL
MIC (S.aureus FDA 209P): > 100 µg/mL
MIC (M.luteus ATCC 9341): > 100 µg/mL
MIC (E.coli NIHJ JC-2): > 100 µg/mL
MIC (E.faecalis RIMD 3336001): > 100 µg/mL
SMILES: S=c1cc[nH]c2cc(COc3ccccc3)ccc12 [compound 6, 7-Phenoxymethylquinoline-4(1H)-thione]
